Legend:
[1] = tested on: IFO-4466, IFO-6353, and IFO-7757; experiment: Growth of reference strains on solid medium containing cycloheximide; assay type: cell-based, Aureobasidium pullulans; details: solid medium (agar plate), 26° C., 10 days
Protocol: This is the case that the formation of a colony of 0.1 mm or greater, preferably 0.3 mm or greater, still preferably 0.5 mm or greater in diameter as a result of fungous proliferation is observed on a solid medium having the cycloheximide concentration that IFO strains is not allowed to grow after a strain is inoculated on the solid medium (agar plate) containing cycloheximide and cultured at 26° C. for 10 days. Usually, these IFO strains are not allowed to grow on a solid medium containing cycloheximide at concentrations of 20 μg/ml or higher.

ADK-34 = experiment: Cycloheximide resistance test; assay type: cell-based, Aureobasidium pullulans; details: strain ADK-34, YM agar, 26° C., 10 days
Protocol: (§1) The strains obtained by the screening in Test Examples 1 and 2 and IFO-4466, IFO-6353, and IFO-7757 purchased from Institute for Fermentation, Osaka, i.e., were tested for cycloheximide resistance as follows. Each strain was grown on YM agar medium (Difco) at 26° C. for 5 days. YM agar media (Difco) containing 5, 10, 20, 40, and 80 μg/ml of cycloheximide were prepared. The grown strain was inoculated into each of the cycloheximide-containing media using a sterile toothpick and incubated at 26° C. for 10 days. The plates were examined for colonies. The diameters of the colonies, if formed, were measured.

IFO-4466 = experiment: Cycloheximide resistance test; assay type: cell-based, Aureobasidium pullulans; details: strain IFO-4466, YM agar, 26° C., 10 days
Protocol: as §1

IFO-7757 = experiment: Cycloheximide resistance test; assay type: cell-based, Aureobasidium pullulans; details: strain IFO-7757, YM agar, 26° C., 10 days
Protocol: as §1

ADK-5 = experiment: Cycloheximide resistance test; assay type: cell-based; details: strain ADK-5, YM agar, 26° C., 10 days
Protocol: as §1

ADK-8 = experiment: Cycloheximide resistance test; assay type: cell-based; details: strain ADK-8, YM agar, 26° C., 10 days
Protocol: as §1

ADK-28 = experiment: Cycloheximide resistance test; assay type: cell-based; details: strain ADK-28, YM agar, 26° C., 10 days
Protocol: as §1

ADK-42 = experiment: Cycloheximide resistance test; assay type: cell-based; details: strain ADK-42, YM agar, 26° C., 10 days
Protocol: as §1

ADK-20 = experiment: Cycloheximide resistance test; assay type: cell-based; details: strain ADK-20, YM agar, 26° C., 10 days
Protocol: as §1

ADK-24 = experiment: Cycloheximide resistance test; assay type: cell-based; details: strain ADK-24, YM agar, 26° C., 10 days
Protocol: as §1

ADK-17 = experiment: Cycloheximide resistance test; assay type: cell-based; details: strain ADK-17, YM agar, 26° C., 10 days
Protocol: as §1

ADK-1 = experiment: Cycloheximide resistance test; assay type: cell-based; details: strain ADK-1, YM agar, 26° C., 10 days
Protocol: as §1

ADK-31 = experiment: Cycloheximide resistance test; assay type: cell-based; details: strain ADK-31, YM agar, 26° C., 10 days
Protocol: as §1

ADK-27 = experiment: Cycloheximide resistance test; assay type: cell-based; details: strain ADK-27, YM agar, 26° C., 10 days
Protocol: as §1

ADK-4 = experiment: Cycloheximide resistance test; assay type: cell-based; details: strain ADK-4, YM agar, 26° C., 10 days
Protocol: as §1

ADK-6 = experiment: Cycloheximide resistance test; assay type: cell-based; details: strain ADK-6, YM agar, 26° C., 10 days
Protocol: as §1

ADK-10 = experiment: Cycloheximide resistance test; assay type: cell-based; details: strain ADK-10, YM agar, 26° C., 10 days
Protocol: as §1

C[C@@H]1C[C@@H]([C@H](O)CC2CC(=O)NC(=O)C2)C(=O)[C@@H](C)C1 [Cycloheximide, cycloheximide]
cycloheximide concentration at which IFO strains are not allowed to grow [1]: ≥ 20 µg/mL
Colony diameter (ADK-34; cycloheximide 5 μg/ml): 13.6 mm
Colony diameter (ADK-34; cycloheximide 10 μg/ml): 6.7 mm
Colony diameter (ADK-34; cycloheximide 20 μg/ml): 5.1 mm
Colony diameter (ADK-34; cycloheximide 40 μg/ml): 3.7 mm
Colony diameter (ADK-34; cycloheximide 80 μg/ml): 0.5 mm
Colony diameter (IFO-4466; cycloheximide 5 μg/ml): 4.4 mm
Colony diameter (IFO-4466; cycloheximide 10 μg/ml): 0 mm
Colony diameter (IFO-4466; cycloheximide 20 μg/ml): 0 mm
Colony diameter (IFO-4466; cycloheximide 40 μg/ml): 0 mm
Colony diameter (IFO-4466; cycloheximide 80 μg/ml): 0 mm
Colony diameter (IFO-7757; cycloheximide 5 μg/ml): 0 mm
Colony diameter (IFO-7757; cycloheximide 10 μg/ml): 0 mm
Colony diameter (IFO-7757; cycloheximide 20 μg/ml): 0 mm
Colony diameter (IFO-7757; cycloheximide 40 μg/ml): 0 mm
Colony diameter (IFO-7757; cycloheximide 80 μg/ml): 0 mm
Colony diameter (ADK-5; cycloheximide 5 μg/ml): 6.3 mm
Colony diameter (ADK-5; cycloheximide 10 μg/ml): 0 mm
Colony diameter (ADK-5; cycloheximide 20 μg/ml): 0 mm
Colony diameter (ADK-5; cycloheximide 40 μg/ml): 0 mm
Colony diameter (ADK-5; cycloheximide 80 μg/ml): 0 mm
Colony diameter (ADK-8; cycloheximide 5 μg/ml): 7.7 mm
Colony diameter (ADK-8; cycloheximide 10 μg/ml): 1.1 mm
Colony diameter (ADK-8; cycloheximide 20 μg/ml): 0 mm
Colony diameter (ADK-8; cycloheximide 40 μg/ml): 0 mm
Colony diameter (ADK-8; cycloheximide 80 μg/ml): 0 mm
Colony diameter (ADK-28; cycloheximide 5 μg/ml): 7.1 mm
Colony diameter (ADK-28; cycloheximide 10 μg/ml): 0 mm
Colony diameter (ADK-28; cycloheximide 20 μg/ml): 0 mm
Colony diameter (ADK-28; cycloheximide 40 μg/ml): 0 mm
Colony diameter (ADK-28; cycloheximide 80 μg/ml): 0 mm
Colony diameter (ADK-42; cycloheximide 5 μg/ml): 2.4 mm
Colony diameter (ADK-42; cycloheximide 10 μg/ml): 0 mm
Colony diameter (ADK-42; cycloheximide 20 μg/ml): 0 mm
Colony diameter (ADK-42; cycloheximide 40 μg/ml): 0 mm
Colony diameter (ADK-42; cycloheximide 80 μg/ml): 0 mm
Colony diameter (ADK-20; cycloheximide 5 μg/ml): 6.2 mm
Colony diameter (ADK-20; cycloheximide 10 μg/ml): 0 mm
Colony diameter (ADK-20; cycloheximide 20 μg/ml): 0 mm
Colony diameter (ADK-20; cycloheximide 40 μg/ml): 0 mm
Colony diameter (ADK-20; cycloheximide 80 μg/ml): 0 mm
Colony diameter (ADK-24; cycloheximide 5 μg/ml): 9.1 mm
Colony diameter (ADK-24; cycloheximide 10 μg/ml): 2.5 mm
Colony diameter (ADK-24; cycloheximide 20 μg/ml): 0 mm
Colony diameter (ADK-24; cycloheximide 40 μg/ml): 0 mm
Colony diameter (ADK-24; cycloheximide 80 μg/ml): 0 mm
Colony diameter (ADK-17; cycloheximide 5 μg/ml): 6.7 mm
Colony diameter (ADK-17; cycloheximide 10 μg/ml): 0 mm
Colony diameter (ADK-17; cycloheximide 20 μg/ml): 0 mm
Colony diameter (ADK-17; cycloheximide 40 μg/ml): 0 mm
Colony diameter (ADK-17; cycloheximide 80 μg/ml): 0 mm
Colony diameter (ADK-1; cycloheximide 5 μg/ml): 0 mm
Colony diameter (ADK-1; cycloheximide 10 μg/ml): 0 mm
Colony diameter (ADK-1; cycloheximide 20 μg/ml): 0 mm
Colony diameter (ADK-1; cycloheximide 40 μg/ml): 0 mm
Colony diameter (ADK-1; cycloheximide 80 μg/ml): 0 mm
Colony diameter (ADK-31; cycloheximide 5 μg/ml): 6.3 mm
Colony diameter (ADK-31; cycloheximide 10 μg/ml): 1.7 mm
Colony diameter (ADK-31; cycloheximide 20 μg/ml): 0 mm
Colony diameter (ADK-31; cycloheximide 40 μg/ml): 0 mm
Colony diameter (ADK-31; cycloheximide 80 μg/ml): 0 mm
Colony diameter (ADK-27; cycloheximide 5 μg/ml): 10.3 mm
Colony diameter (ADK-27; cycloheximide 10 μg/ml): 0 mm
Colony diameter (ADK-27; cycloheximide 20 μg/ml): 0 mm
Colony diameter (ADK-27; cycloheximide 40 μg/ml): 0 mm
Colony diameter (ADK-27; cycloheximide 80 μg/ml): 0 mm
Colony diameter (ADK-4; cycloheximide 5 μg/ml): 8.5 mm
Colony diameter (ADK-4; cycloheximide 10 μg/ml): 0 mm
Colony diameter (ADK-4; cycloheximide 20 μg/ml): 0 mm
Colony diameter (ADK-4; cycloheximide 40 μg/ml): 0 mm
Colony diameter (ADK-4; cycloheximide 80 μg/ml): 0 mm
Colony diameter (ADK-6; cycloheximide 5 μg/ml): 7.1 mm
Colony diameter (ADK-6; cycloheximide 10 μg/ml): 0 mm
Colony diameter (ADK-6; cycloheximide 20 μg/ml): 0 mm
Colony diameter (ADK-6; cycloheximide 40 μg/ml): 0 mm
Colony diameter (ADK-6; cycloheximide 80 μg/ml): 0 mm
Colony diameter (ADK-10; cycloheximide 5 μg/ml): 8.5 mm
Colony diameter (ADK-10; cycloheximide 10 μg/ml): 0 mm
Colony diameter (ADK-10; cycloheximide 20 μg/ml): 0 mm
Colony diameter (ADK-10; cycloheximide 40 μg/ml): 0 mm
Colony diameter (ADK-10; cycloheximide 80 μg/ml): 0 mm

Reference: patent US7442541B2, “β-glucan-containing fat and oil composition and novel microorganism capable of producing β-glucan” (Adeka Corporation, priority 2002, dated 2008)
